Results taken from patent publication US4264576A, “Contraceptive methods and compositions” (Eli Lilly and Company, priority 1980, dated 1981).

What was measured:
[1] = Drug release rate from dimethylpolysiloxane rubber compositions in calcium-free Ringers solution; type: physicochemical; details: footnote of Table II; Calc. on basis of hyaluronidase inhibition
Procedure: An appropriate sample of a dimethylpolysiloxane rubber composition in which is incorporated the test compound is placed in a suitable amount of calcium-free Ringers solution, and the sample and solution are incubated together at 37° C. for a period of time (e.g. 24 hours). […] The equivalent amount of test compound in the removed solution is calculated from standard inhibition curves in which hyaluronidase inhibition is plotted against concentration of the test compound. The calculated result are expressed as micrograms of test compound released per day.
The above test may be repeated for an extended period of time, for example, for 1 day to 360 days, or more, by adding fresh calcium-free Ringer's solution after each removal of the solution for assay.
The sample weight was 4 mg. and the amount of added solution was 1 ml.

[2] = system: Dutch Belted virgin rabbits; experiment: Antifertility effects in vivo by intrauterine administration; parameters: species or system rabbit; details: 40-mg dimethylpolysiloxane rubber rod, 10% W/W
Procedure: Dutch Belted virgin rabbits, each weighing 3-4 pounds, are randomly selected and anesthetized with sodium pentobarbital (50 μg./ml.) administered by IV drip. The uterus of each animal is exposed and a 40-mg. sample in the shape of a rod (3 mm. in diameter) of dimethylpolysiloxane rubber (as prepared in Example 3) containing 10% W/W of sodium sulfopropyl n-dodecanoate is sutured into the right uterine horn at a random location in between the cervix and the utero-tubal junction. The left horn is left untreated to serve as control. The rubber rod is placed into the uterine horn by passing a curved needle through it and through the uterine wall pulling the rod into the uterine lumen. The entry is closed by suturing. Animals (blank) are similarly treated using unmedicated dimethylpolysiloxane rubber to serve as a second group of controls. The animals are given 300,000 units of Duracillin® per day (in four doses) and are allowed to recover for 14 days. Each animal is bred to a male of proven fertility and is immediately given a dose (IV) of appropoximately 100 units of human chorionic gonadotropin (HCG) to facilitate ovulation. Fourteen days after breeding, the animal are sacrificed by cervical dislocation and the uterine horns are examined for implanted embryos. The number of embryos per uterine horn are recorded.

cumulus oophorus = experiment: Removal of cumulus oophorus from ova by hyaluronidase, in vitro; type: cell-based, rabbit; details: 10 μl of 10 mg./ml. compound solution in 1 ml calcium-free Ringer's solution, 37° C.
Procedure: In the absence of sodium sulfopropyl dodecanoate, complete removal of the cumulus oophorus is observed.
Female rabbits are given 100 units of pregnant mares serum (PMS), IM, and 134 units of HCG, IV. After 13 hours the animals are sacrificed, and the ovaries are excised. The ovaries are submerged in calcium-free Ringer's solution containing 20% rabbit serum which had been heated to 55° C. for 20 minutes. Ova with cumulus intact are removed and placed in calcium-free Ringer's solution for incubation at 37° C. Hyaluronidase (10 μl.) of a 10 mg./ml. solution in calciumfree Ringer's solution is added to 20 ova in 1 ml. of the incubation medium. To 10 ova in the same medium is added 10 μl. of a solution of sodium sulfopropyl n-dodecanoate (10 mg./ml.) in calcium-free Ringer's solution. To 10 other ova in the same media is added 10 μl. of calcium-free Ringer's solution as control. The mixtures are incubated at 37° C., and the cumulus oophorus is examined at 15 minute intervals with an American Optical stereomicroscope. In the absence of sodium sulfopropyl n-dodecanoate, the cumulus oophorus is completely removed.

[3] = system: virgin dutch belted female rabbit; experiment: Antifertility effects in vivo by intravaginal administration; details: 1 ml of equal volumes Ky-jelly and 10 mg./ml. solution, before breeding, 6 animals
Procedure: Equal volumes of Ky-jelly® and either Ca^++ free Ringer's solution or a 10 mg./ml. solution of the compound to be tested in Ca^++ free Ringer's solution are well mixed. One milliliter of this is placed into the vagina of a virgin dutch belted female rabbit using a syringe. The female is then immediately bred to a fertile buck. The female is injected I.V. with 100 units of human chorionic gonadotrophin to assure a good ovulation rate.
After approximately 14 days the females are sacrificed by cervical dislocation and the genital system examined for the number of embryos.

acrosin = acrosin (Homo sapiens, UniProt P10323); experiment: Acrosin inhibition in vitro; type: biochemical; details: statement in words
Sequence of acrosin (P10323 20-421, species assumed): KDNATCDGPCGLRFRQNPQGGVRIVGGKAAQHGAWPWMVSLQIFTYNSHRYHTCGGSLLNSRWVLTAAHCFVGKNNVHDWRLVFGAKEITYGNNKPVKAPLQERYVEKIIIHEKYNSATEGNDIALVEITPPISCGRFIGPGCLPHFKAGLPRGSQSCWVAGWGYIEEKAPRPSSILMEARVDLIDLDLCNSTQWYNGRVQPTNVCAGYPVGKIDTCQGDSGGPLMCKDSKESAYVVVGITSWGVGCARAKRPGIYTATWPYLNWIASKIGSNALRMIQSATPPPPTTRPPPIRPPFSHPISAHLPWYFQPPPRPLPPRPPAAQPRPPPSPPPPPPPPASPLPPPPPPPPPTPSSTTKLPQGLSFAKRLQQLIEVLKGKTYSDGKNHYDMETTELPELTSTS

CCCCCCCCCCCC(=O)OCCCS(=O)(=O)O.[Na] [CH3 (CH2)10, n=3, sodium sulfopropyl dodecanoate]
Release rate from dimethylpolysiloxane, in vitro [1]: 1 to 3 mg/day | Total No. of embryos ([2]; in right uterine horn, 11 horns, 14 days after breeding): 1 | [drawing 14] (number of embryos per uterine horn) ([2]; in uterine horn, p < .001 compared to untreated and to blank): 0.09 | state of the cumulus oophorus of rabbit ova incubated with hyaluronidase (cumulus oophorus): the cumulus oophorus remain substantially intact | state of the cumulus oophorus of rabbit ova incubated with hyaluronidase (cumulus oophorus; listed as sodium sulfopropyl n-dodecanoate): the cumulus remains substantially intact | Avg. No. of Embryos per animal [3]: 0 | No. of embryos ([3]; approximately 14 days): 0

CCCC/C=C\CCCCCCCC(=O)OCCCS(=O)(=O)O.[Na] [cis- CH3 (CH2)3 CHCH(CH2)7, n=3, sodium sulfopropyl myristoleate]
anti-acrosin activity (inhibition in vitro of the action of acrosin) (acrosin): anti-acrosin activity

CCCC/C=C/CCCCCCCC(=O)OCCCS(=O)(=O)O [trans- CH3 (CH2)3 CHCH(CH2) 7, n=3, sodium sulfopropyl myristelaidate]
anti-acrosin activity (inhibition in vitro of the action of acrosin) (acrosin): anti-acrosin activity

sodium sulfopropyl 15-methylheptadecanoate
anti-acrosin activity (inhibition in vitro of the action of acrosin) (acrosin): anti-acrosin activity

sodium sulfopropyl 16-methylheptadecanoate
anti-acrosin activity (inhibition in vitro of the action of acrosin) (acrosin): anti-acrosin activity
